This experiment addresses T1, human TGR5 (Homo sapiens, UniProt Q8TDU6).
T1 construct: expressed in transfected cells; host or cells: HEK293
T1 sequence (Q8TDU6 1-330): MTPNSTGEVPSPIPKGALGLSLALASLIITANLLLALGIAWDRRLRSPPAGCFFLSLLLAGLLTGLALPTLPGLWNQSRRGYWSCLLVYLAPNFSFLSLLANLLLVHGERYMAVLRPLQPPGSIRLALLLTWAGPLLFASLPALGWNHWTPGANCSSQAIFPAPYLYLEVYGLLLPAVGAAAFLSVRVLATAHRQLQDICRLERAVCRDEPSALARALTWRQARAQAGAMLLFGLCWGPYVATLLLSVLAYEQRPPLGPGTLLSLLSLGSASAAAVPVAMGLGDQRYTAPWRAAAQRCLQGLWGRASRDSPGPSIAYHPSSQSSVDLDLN
Nature of the experiment: Cell-based TGR5 assay (cAMP generation, HTRF). The conditions noted are these: HEK293 cells stably transfected with human TGR5; cAMP by HTRF; 30 minutes at 37° C.; read-out: pEC50 Human TGR5 (converted). The method, boiled down: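 First, compounds in 3-fold serial dilution were placed in HBSS with 10 mM HEPES pH 7.4 and 0.5 mM IBMX. Next, human TGR5-expressing HEK293 cells were added and incubated 30 min at 37° C. Finally, cAMP was detected by HTRF and pEC50 derived by logistic fitting.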
Consider `CN(C[C@H](O)[C@@H](O)[C@H](O)[C@H](O)CO)C(=O)c1ccc(CSc2ccc(Cl)c(CNC3(c4cnccc4-c4ccccc4OC4CC4)CC3)c2)cc1` [Compound I-680, 4-[({4-chloro-3-[({1-[4-(2-cyclopropoxyphenyl)pyridin-3-yl]cyclopropyl}amino)methyl]phenyl}sulfanyl)methyl]-N-methyl-N-[(2S,3R,4R,5R)-2,3,4,5,6-pentahydroxyhexyl]benzamide], for which the EC50 was 126 to 1000 nM.

With `CN(C[C@H](O)[C@@H](O)[C@H](O)[C@H](O)CO)C(=O)CC1(CSc2ccc(Cl)c(CNC3(c4cnccc4-c4ccccc4OC4CC4)CC3)c2)CC1` [Compound I-681, 2-{1-[({4-chloro-3-[({1-[4-(2-cyclopropoxyphenyl)pyridin-3-yl]cyclopropyl}amino)methyl]phenyl}sulfanyl)methyl]cyclopropyl}-N-methyl-N-[(2S,3R,4R,5R)-2,3,4,5,6-pentahydroxyhexyl]acetamide], the EC50 is less than 100 nM.

In the case of `CN(C[C@H](O)[C@@H](O)[C@H](O)[C@H](O)CO)C(=O)CCCCSc1ccc(Cl)c(COC2(c3cnccc3-c3ccccc3OC3CC3)CC2)c1` [Compound I-682, 5-{[4-chloro-3-({1-[4-(2-cyclopropoxyphenyl)pyridin-3-yl]cyclopropoxy}methyl)phenyl]sulfanyl}-N-methyl-N-[(2S,3R,4R,5R)-2,3,4,5,6-pentahydroxyhexyl]pentanamide], the EC50 was less than 100 nM.

Take `O=C(CCCSc1ccc(Cl)c(COC2(c3cnccc3-c3ccccc3OC3CC3)CC2)c1)N(CCOCCO)C[C@H](O)[C@@H](O)[C@H](O)[C@H](O)CO` [Compound I-683, 4-{[4-chloro-3-({1-[4-(2-cyclopropoxyphenyl)pyridin-3-yl]cyclopropoxy}methyl)phenyl]sulfanyl}-N-[2-(2-hydroxyethoxy)ethyl]-N-[(2S,3R,4R,5R)-2,3,4,5,6-pentahydroxyhexyl]butanamide]: the EC50 was 126 to 1000 nM.

Consider `O=C(CCCSc1ccc(Cl)c(COC2(c3cnccc3-c3ccccc3OC3CC3)CC2)c1)N(CCCCCO)C[C@H](O)[C@@H](O)[C@H](O)[C@H](O)CO` [Compound I-684, 4-f{[4-chloro-3-({1-[4-(2-cyclopropoxyphenyl)pyridin-3-yl]cyclopropoxy}methyl)phenyl]sulfanyl}-N-(5-hydroxypentyl)-N-[(2S,3R,4R,5R)-2,3,4,5,6-pentahydroxyhexyl]butanamide], for which the EC50 was 126 to 1000 nM.

Turning to `CN(C[C@H](O)[C@@H](O)[C@H](O)[C@H](O)CO)C(=O)c1ccc(CSc2ccc(Cl)c(COC3(c4cnccc4-c4ccccc4OC4CC4)CC3)c2)cc1` [Compound I-685, 4-({[4-chloro-3-({1-[4-(2-cyclopropoxyphenyl)pyridin-3-yl]cyclopropoxy}methyl)phenyl]sulfanyl}methyl)-N-methyl-N-[(2S,3R,4R,5R)-2,3,4,5,6-pentahydroxyhexyl]benzamide], the EC50 was less than 100 nM.

As for `O=C(CCCSc1ccc(Cl)c(COC2(c3cnccc3-c3ccccc3OC3CC3)CC2)c1)N(CCS(=O)(=O)N1CCOCC1)C[C@H](O)[C@@H](O)[C@H](O)[C@H](O)CO` [Compound I-686, 4-{[4-chloro-3-({1-[4-(2-cyclopropoxyphenyl)pyridin-3-yl]cyclopropoxy}methyl)phenyl]sulfanyl}-N-[2-(morpholine-4-sulfonyl)ethyl]-N-[(2S,3R,4R,5R)-2,3,4,5,6-pentahydroxyhexyl]butanamide], the EC50 is 126 to 1000 nM.

Consider `CC(C)(CO)CN(C[C@@H](O)[C@H](O)[C@@H](O)[C@@H](O)CO)C(=O)CCCSc1ccc(Cl)c(COC2(c3cnccc3-c3ccccc3OC3CC3)CC2)c1` [Compound I-687, 4-{[4-chloro-3-({1-[4-(2-cyclopropoxyphenyl)pyridin-3-yl]cyclopropoxy}methyl)phenyl]sulfanyl}-N-(3-hydroxy-2,2-dimethylpropyl)-N-[(2R,3S,4S,5S)-2,3,4,5,6-pentahydroxyhexyl]butanamide], for which the EC50 was 126 to 1000 nM.

For `O=C(CCCSc1ccc(Cl)c(COC2(c3cnccc3-c3ccccc3OC3CC3)CC2)c1)N(C[C@@H](O)[C@H](O)[C@@H](O)[C@@H](O)CO)[C@H]1CC[C@@H](O)CC1` [Compound I-688, 4-{[4-chloro-3-({1-[4-(2-cyclopropoxyphenyl)pyridin-3-yl]cyclopropoxy}methyl)phenyl]sulfanyl}-N-[(2R,3S,4S,5S)-2,3,4,5,6-pentahydroxyhexyl]-N-[(1s,4s)-4-hydroxycyclohexyl]butanamide], the EC50 was 126 to 1000 nM.

With `CC(CCSc1ccc(Cl)c(COC2(c3cnccc3-c3ccccc3OC3CC3)CC2)c1)C(=O)N(C)C[C@H](O)[C@@H](O)[C@H](O)[C@H](O)CO` (stereo partly drawn) [Compound I-689, 4-{[4-chloro-3-({1-[4-(2-cyclopropoxyphenyl)pyridin-3-yl]cyclopropoxy}methyl)phenyl]sulfanyl}-N,2-dimethyl-N-[(2S,3R,4R,5R)-2,3,4,5,6-pentahydroxyhexyl]butanamide], the EC50 was less than 100 nM.

Consider `CC(CCSc1ccc(Cl)c(COC2(c3cnccc3-c3ccccc3OC3CC3)CC2)c1)C(=O)NC[C@H](O)[C@@H](O)[C@H](O)[C@H](O)CO` (stereo partly drawn) [Compound I-690, 4-{[4-chloro-3-({1-[4-(2-cyclopropoxyphenyl)pyridin-3-yl]cyclopropoxy}methyl)phenyl]sulfanyl}-2-methyl-N-[(2S,3R,4R,5R)-2,3,4,5,6-pentahydroxyhexyl]butanamide], for which the EC50 is less than 100 nM.

For the compound `CCc1ccc(SCCCC(=O)N(C)C[C@H](O)[C@@H](O)[C@H](O)[C@H](O)CO)cc1COC1(c2cnccc2-c2ccccc2OC2CC2)CC1` [Compound I-691, 4-{[3-({1-[4-(2-cyclopropoxyphenyl)pyridin-3-yl]cyclopropoxy}methyl)-4-ethylphenyl]sulfanyl}-N-methyl-N-[(2S,3R,4R,5R)-2,3,4,5,6-pentahydroxyhexyl]butanamide], the EC50 is 126 to 1000 nM.

For the compound `O=C(CCCSc1ccc(Cl)c(COC2(c3cnccc3-c3ccccc3OC3CC3)CC2)c1)N(CCCCO)C[C@H](O)[C@@H](O)[C@H](O)[C@H](O)CO` [Compound I-692, 4-{[4-chloro-3-({1-[4-(2-cyclopropoxyphenyl)pyridin-3-yl]cyclopropoxy}methyl)phenyl]sulfanyl}-N-(4-hydroxybutyl)-N-[(2S,3R,4R,5R)-2,3,4,5,6-pentahydroxyhexyl]butanamide], the EC50 was 126 to 1000 nM.

Consider `CN(C)S(=O)(=O)CCN(C[C@H](O)[C@@H](O)[C@H](O)[C@H](O)CO)C(=O)CCCSc1ccc(Cl)c(COC2(c3cnccc3-c3ccccc3OC3CC3)CC2)c1` [Compound I-693, 4-{[4-chloro-3-({1-[4-(2-cyclopropoxyphenyl)pyridin-3-yl]cyclopropoxy}methyl)phenyl]sulfanyl}-N-[2-(dimethylsulfamoyl)ethyl]-N-[(2S,3R,4R,5R)-2,3,4,5,6-pentahydroxyhexyl]butanamide], for which the EC50 was 126 to 1000 nM.

Regarding `CNS(=O)(=O)CCN(C[C@H](O)[C@@H](O)[C@H](O)[C@H](O)CO)C(=O)CCCSc1ccc(Cl)c(COC2(c3cnccc3-c3ccccc3OC3CC3)CC2)c1` [Compound I-694, 4-{[4-chloro-3-({1-[4-(2-cyclopropoxyphenyl)pyridin-3-yl]cyclopropoxy}methyl)phenyl]sulfanyl}-N-[2-(methylsulfamoyl)ethyl]-N-[(2S,3R,4R,5R)-2,3,4,5,6-pentahydroxyhexyl]butanamide], the EC50 was 126 to 1000 nM.

`CC(=O)N(CCCCCSc1ccc(Cl)c(COC2(c3cnccc3-c3ccccc3OC3CC3)CC2)c1)C[C@H](O)[C@@H](O)[C@H](O)[C@H](O)CO` [Compound I-695, N-(5-{[4-chloro-3-({1-[4-(2-cyclopropoxyphenyl)pyridin-3-yl]cyclopropoxy}methyl)phenyl]sulfanyl}pentyl)-N-[(2S,3R,4R,5R)-2,3,4,5,6-pentahydroxyhexyl]acetamide]: the EC50 was less than 100 nM.

Turning to `CCN(CCCCNC(=O)N[C@@H](CO)[C@@H](O)[C@H](O)[C@H](O)CO)S(=O)(=O)c1ccc(Cl)c(CNC2(c3cnccc3-c3ccccc3OC3CC3)CC2)c1` [Compound I-696, 1-[4-(N-ethyl[4-chloro-3-[([1-[4-(2-cyclopropoxyphenyl)pyridin-3-yl]cyclopropyl]amino)methyl]benzene]sulfonamido)butyl]-3-[(2S,3R,4S,5R)-1,3,4,5,6-pentahydroxyhexan-2-yl]urea], the EC50 was less than 100 nM.

In the case of `Oc1cc(Cl)c(CNC2(c3cnccc3-c3ccccc3OC3CC3)CC2)cc1Cl` [Compound I-700, 2,5-dichloro-4-[([1-[4-(2-cyclopropoxyphenyl)pyridin-3-yl]cyclopropyl]amino)methyl]phenol], the EC50 is less than 100 nM.

`Cc1ccc(CCCCNC(=O)NC[C@H](O)[C@@H](O)[C@H](O)[C@H](O)CO)nc1CNC1(c2cnccc2-c2ccccc2OC2CC2)CC1` [Compound I-705]: the EC50 was 126 to 1000 nM.

With `Cc1ccc(CCCCNC(=O)N(C)C[C@H](O)[C@@H](O)[C@H](O)[C@H](O)CO)nc1CNC1(c2cnccc2-c2ccccc2OC2CC2)CC1` [Compound I-706], the EC50 is 1260 to 10000 nM.

Regarding `Cc1ccc(CCCCCNC(=O)NC[C@H](O)[C@@H](O)[C@H](O)[C@H](O)CO)nc1CNC1(c2cnccc2-c2ccccc2OC2CC2)CC1` [Compound I-707], the EC50 was 1260 to 10000 nM.

For `Cc1ccc(CCCCC(=O)N(C)C[C@H](O)[C@@H](O)[C@H](O)[C@H](O)CO)nc1COC1(c2cnccc2-c2ccccc2OC2CC2)CC1` [Compound I-709], the EC50 was 1260 to 10000 nM.

Consider `CC(C)(NCc1cc(Cl)ccc1Cl)c1cnccc1-c1ccccc1OC1CC1` [Compound I-723, 2-(4-(2-Cyclopropoxyphenyl)pyridin-3-yl)-N-(2,5-dichlorobenzyl)propan-2-amine], for which the EC50 was less than 100 nM.

For the origin of these results see patent publication US12084472B2 (Ardelyx, Inc., priority 2015, dated 2024).
